Reference: patent US12115140B2, “Method of treating adenoid cystic carcinoma” (THE TRUSTEES OF COLUMBIA UNIVERSITY IN THE CITY OF NEW YORK, priority 2020, dated 2024)

Experiments:
[1] = test system: CD49f^low, KIT^+ (ductal-like) and CD49f^high, KIT^neg (myoepithelial-like) cells of human ACCs; assay: Flow cytometry of short-term primary cultures from ACC PDX lines: relative content of ductal-like and myoepithelial-like cells; type: cell-based; details: for percentage of myoepithelial-like cells (CD49f^high, KIT^neg): ACCX5M1, direct agonists, vs DMSO; for significance of reduction in percentage of CD49f^low, KIT^+ (ductal-like) cells: at both 1 μM and 10 μM, ACCX5M1 and SGTX6, vs NT or DMSO
Text: From a histological point of view, ACCs are usually characterized by a “bi-phasic differentiation” (i.e., the malignant tissues contain two distinct cell populations, which are commonly referred to as “myoepithelial-like” and “ductal-like” cells). A combination of cell surface markers (CD49f, KIT) have been discovered which enable the differential purification and accurate quantification of the two populations using fluorescence activated cell sorting (FACS). It has further been discovered that myoepithelial-like (CD49f^high, KIT^neg) cells are associated with more aggressive biological properties as compared to ductal-like (CD49f^low, KIT^+) cells when tested for their tumorigenic capacity (i.e., their capacity to sustain the formation of a new tumor upon xeno-transplantation in immuno-deficient mice).
FIGS. 1A-1F and 2A-2D illustrate the in vitro anti-tumor activity of BMS493 against human ACCs. FIGS. 1A and 1B show the results of a short-term primary culture from a patient-derived xenograft (PDX) line representative of human ACCs with “cribriform” histology (ACCX5M1) treated in vitro with BMS493 (10 μM) for 7 days and then analyzed by flow cytometry. FIGS. 1C and 1D show the results of a short-term primary culture from a patient-derived xenograft (PDX) line representative of human ACCs with “cribriform” histology (SGTX6) treated in vitro with BMS493 (10 μM) for 7 days and then analyzed by flow cytometry. FIGS. 1E and 1F show the results of a short-term primary culture from a patient-derived xenograft (PDX) line representative of human ACCs with “cribriform” histology (ACCX6) treated in vitro with BMS493 (10 μM) for 7 days and then analyzed by flow cytometry.
FIGS. 3A-3I illustrate the in vitro anti-tumor activity of BMS493 and AGN193109 against human ACCs. FIGS. 3A and 3B show comparison plots of short-term primary cultures from two patient-derived xenograft (PDX) lines representative of human ACCs with “cribriform” histology (SGTX6 and ACCX5M1, respectively), which were treated in vitro for 7 days with either BMS493 or AGN193109 and then analyzed by flow cytometry.

[2] = test system: myoepithelial-like cells (CD49f^high, KIT^neg) isolated by FACS from solid tumors; assay: Sorted myoepithelial-like cells (FACS) stimulated in vitro with direct RAR agonist; type: cell-based, human; details: ATRA 10 μM (also printed 10 mM), 7 days
[3] = test system: CD49f^low, KIT^+ (ductal-like) and CD49f^high, KIT^neg (myoepithelial-like) cells of human ACCs; assay: Flow cytometry of short-term primary cultures from ACC PDX lines: relative content of ductal-like and myoepithelial-like cells; type: cell-based; details: 10 μM, 7 days; ACCX5M1; direct agonists; vs DMSO
[4] = test system: human ACC primary cultures (ACCX5M1, ACCX9); assay: Cell viability / cytotoxic activity in primary cultures of ACC PDX lines; type: cell-based; details: for cell viability: ACCX5M1, vs DMSO control cultures, FIG. 3E; for cytotoxic activity: ACCX9 (solid histology), FIG. 3F
Text: (§1) With reference to FIGS. 3E-3F, combination treatments may be used, based on the use of inverse agonists of RAR/RXR signaling (e.g., BMS493 or AGN193109) as radio-sensitizers and/or chemo-sensitizers (i.e., agents able to increase the cytotoxic activity of radiotherapy and/or chemotherapy).

ACCX9 primary cultures = assay: Microscope images of ACCX9 primary cultures; type: cell-based, human; details: 10 μM, 7 days
Text: as §1, with “FIGS. 3G, 3H and 3I are microscope images of ACCX9 primary cultures treated with DMSO, BMS493 and AGN193109, respectively. […] With” for “With”

[5] = test system: ACCX5M1 organoid cultures, ductal-like (CD49f^low, KIT^+) cells; assay: Organoid cultures of ACCX5M1 PDX line treated one week: inverse agonists versus neutral antagonist, flow cytometry; type: cell-based, human; details: for killing of ductal-like (CD49f^low, KIT^+) cells: ACCs cultured in vitro as three-dimensional (3D) organoids
Experimental: Further, as shown in FIGS. 6A-10, the efficacies of the inverse agonists BMS493 and AGN193109 were compared against a neutral antagonist (BMS195614). For FIGS. 6A-8, organoid cultures from a patient derived xenograft line (ACCX5M1) were treated for one week with DMSO (as a control), the neutral antagonist (BMS195614, 1 μM, 10 μM) or the inverse agonists (BMS493 1 μM, BMS493 10 μM, AGN193109 10 μM). The graphs display the percentage of KIT+ cells in each culture condition. FIG. 6A is a scatter plot displaying the relative content of myoepithelial-like cells and ductal-like cells in a primary in vitro organoid culture of the ACCX5M1 patient-derived xenograft (PDX) line treated with DMSO for 7 days and analyzed by flow cytometry. FIG. 6B is a scatter plot displaying the relative content of myoepithelial-like cells and ductal-like cells in a primary in vitro organoid culture of the ACCX5M1 patient-derived xenograft (PDX) line treated with the neutral antagonist BMS195614 (1 μM) for 7 days and analyzed by flow cytometry. FIG. 6C is a scatter plot displaying the relative content of myoepithelial-like cells and ductal-like cells in a primary in vitro organoid culture of the ACCX5M1 patient-derived xenograft (PDX) line treated with the neutral antagonist BMS195614 (10 μM) for 7 days and analyzed by flow cytometry.
FIG. 7A is a scatter plot displaying the relative content of myoepithelial-like cells and ductal-like cells in a primary in vitro organoid culture of the ACCX5M1 patient-derived xenograft (PDX) line treated with the inverse agonist BMS493 (1 μM) after one week. FIG. 7B is a scatter plot displaying the relative content of myoepithelial-like cells and ductal-like cells in a primary in vitro organoid culture of the ACCX5M1 patient-derived xenograft (PDX) line treated with the inverse agonist BMS493 (10 μM) for 7 days and analyzed by flow cytometry. FIG. 7C is a scatter plot displaying the relative content of myoepithelial-like cells and ductal-like cells in a primary in vitro organoid culture of the ACCX5M1 patient-derived xenograft (PDX) line treated with the inverse agonist AGN193109 (10 μM) for 7 days and analyzed by flow cytometry. FIG. 8 is a bar graph comparing the percentage of ductal-like (CD49f^low, KIT^+) cells after one week from each of the treatments of FIGS. 6A-7C. FIG. 9 is a bar graph comparing the percentage of ductal-like (CD49f^low, KIT^+) cells after one week from the treatments of FIGS. 6A, 6C, 7B and 7C. FIG. 10 is a bar graph comparing the percentage of EpCAM^+/DAPI^+ cells (i.e., dead epithelial cells) after one week from each of the treatments of FIGS. 6A-7C. […] It should be noted that in FIGS. 8-10, BMS195614 has been abbreviated as “BMS195” due to the available space in the Figures.

[6] = test system: human ACC tumor cells (PDX lines SGTX6, ACCX6, ACCX9, ACCX11); assay: Percentage of dead tumor cells (EpCAM^+/DAPI^+) in primary cultures of ACC PDX lines by flow cytometry; type: cell-based
Text: (§2) It should be noted that in FIGS. 2A and 2B, the percentage of dead tumor cells is reported as a percentage of the human epithelial cells that incorporate DAPI (i.e. EpCAM^+/DAPI^+) and excludes any contaminant of mouse cells from the primary tissues that were used to generate the cultures (i.e. excludes cells expressing H-2K^d and/or mCd45).
as §2, with “2C” for “2A”, “2D,” for “2B,”

[7] = test system: human ACCs engrafted in mice (ACCX5M1, SGTX6, ACCX9); assay: In vivo growth kinetics of ACC PDX lines engrafted subcutaneously in NSG immune-deficient mice
Experimental: Three independent patient-derived xenograft (PDX) lines representative of human ACCs (ACCX5M1, SGTX6, ACCX9) were engrafted in the subcutaneous (s.c.) tissue of NOD/SCID/IL2Rγ^−/− (NS G) immune-deficient mice and left growing until they reached a size of approximately 700 mm^3. Tumor-bearing mice were then divided into two cohorts, one of which was treated with BMS493 (40 mg/kg X 3-4 days/week), while the other received only DMSO (i.e., the solvent used as a vehicle to resuspend BMS493).

[8] = 7 days, SGTX6 and ACCX5M1, FIGS. 3A, 3B
[9] = ACCX5M1 organoids, one week, FIG. 8
[10] = 10 μM, 7 days, ACCX5M1, SGTX6, ACCX6 (cribriform), vs untreated

Row | Compound | percentage of myoepithelial-like cells (CD49f^high, KIT^neg) ([1]; 10 μM, 7 days) | percentage of ductal-like cells (CD49f^low, KIT^+) [3] | percentage of CD49f^low, KIT^+ (ductal-like) cells [1, 8] | significance of reduction in percentage of CD49f^low, KIT^+ (ductal-like) cells [1] | cell viability [4] | cytotoxic activity [4] | cell morphology in microscope images (ACCX9 primary cultures) | killing of ductal-like (CD49f^low, KIT^+) cells [5] | also measured
1 | CC1=C(/C=C/C(C)=C/C=C/C(C)=C/C(=O)O)C(C)(C)CCC1 [ATRA, all-trans retinoic acid] | reduction | increase | – | – | – | – | – | – | differentiation of sorted myoepithelial-like cells into ductal-like cells [2]: differentiation of myoepithelial-like cells
2 | Cc1ccc(C2=CCC(C)(C)c3ccc(C#Cc4ccc(C(=O)O)cc4)cc32)cc1 [AGN193109, 4-[2-[5,6-Dihydro-5,5-dimethyl-8-(4-methylphenyl)-2-naphthalenyl]ethynyl]benzoic acid] | – | – | dramatic reduction | statistically significant | reduction in cell viability | clear cytotoxic activity | widespread cell fragmentation | able to selectively kill | –
3 | CC1(C)CC=C(c2cnc3ccccc3c2)c2cc(C(=O)Nc3ccc(C(=O)O)cc3)ccc21 [BMS195614] | – | – | – | – | – | – | – | – | change in percentage of ductal-like (CD49f^low, KIT^+) cells on raising concentration from 1 μM to 10 μM [5, 9]: does not translate in a significant decrease; percentage of ductal-like (CD49f^low, KIT^+) cells relative to BMS493 and AGN193109 [5, 9]: remains statistically superior; anti-tumor effect relative to inverse agonists BMS493 and AGN193109 ([5]; at both doses, 1 μM and 10 μM): clearly systematically inferior
4 | CC1(C)CC=C(C#Cc2ccccc2)c2cc(/C=C/c3ccc(C(=O)O)cc3)ccc21 [BMS493, 4-[(1E)-2-[5,6-Dihydro-5,5-dimethyl-8-(2-phenylethynyl)-2-naphthalenyl]ethenyl]benzoic acid] | – | – | dramatic reduction | statistically significant | reduction in cell viability | clear cytotoxic activity | widespread cell fragmentation | able to selectively kill | percentage of CD49f^high, KIT^neg (myoepithelial-like) cells [1, 10]: corresponding relative increase; percentage of CD49f^low, KIT^+ (ductal-like) cells [1, 10]: dramatic reduction; percentage of dead (DAPI^+) cells ([6]; ACCX9 and ACCX11 (solid histology)): substantial increase; percentage of dead tumor cells (EpCAM^+/DAPI^+) ([6]; SGTX6 and ACCX6 (cribriform), vs NT, DMSO or ATRA): substantial increase; tumor growth (change in tumor volume over time) ([7]; 40 mg/kg X 3-4 days/week, ACCX5M1, SGTX6, ACCX9 s.c. in NSG mice, vs DMSO): either growth arrest or tumor shrinkage; activity against human ACCs engrafted in mice ([7]; dosing regimens from 10 mg/kg (once daily X 21 days) up to 40 mg/kg (4 times/week X 3 weeks)): active; percentage of dead cells (EpCAM^+/DAPI^+) ([5]; ACCX5M1 organoids, one week, BMS493 10 μM, BMS195614 1 μM, 10 μM, FIG. 10): significant increase
5 | C=C(c1ccc(C(=O)O)cc1)c1cc2c(cc1C)C(C)(C)CCC2(C)C [bexarotene] | reduction | increase | – | – | – | – | – | – | –
